Laboratory results taken from publication PMC9019904, “AD Informer Set: Chemical tools to facilitate Alzheimer's disease drug discovery” (Alzheimer's & Dementia : Translational Research & Clinical …, 2022).

Legend:
[1] = test system: BV2 (mouse microglia) cell line; assay: pHrodo-myelin phagocytosis/cell viability high content imaging assay: viability (cell count, nuclear area, nuclear intensity); conditions: 48 hours treatment
In short: (§1)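 Viability was read as total cell count per well by high-content imaging, with mean average nuclear intensity per cell profiling apoptosis (rise early, fall late). Compounds were given at 10 μM for 48 h, pHrodo-myelin being added for the final 20 h. Values are means of two points as % untreated control.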

[2] = test system: HMC3 (human microglia) cell line; assay: as above; conditions: 48 hours treatment
In short: as §1

[3] = test system: BV2 (mouse microglia) cell line; assay: pHrodo-myelin phagocytosis/cell viability high content imaging assay: phagocytosis signal; format: cell-based
In short: (§2)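 HCI read-out ~22 h post pHrodo-myelin; phagocytosis + viability simultaneously; 3 parameters extracted; intensity up = early apoptosis, down = later apoptosis.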

[4] = test system: HMC3 (human microglia) cell line; assay: as above; format: cell-based
In short: as §2

[5] = BV2 cells, 10 uM compound, 48 hours treatment, pHrodo-myelin final 20 hours
[6] = HMC3 cells, 10 uM compound, 48 hours treatment, pHrodo-myelin final 20 hours
[7] = BV2, compound 10 uM, pHrodo-myelin
[8] = HMC3, compound 10 uM, pHrodo-myelin

CNc1nc(C)nc(N[C@H]2CCC[C@@H](C(=O)NCc3ccc(C#N)cc3C(F)(F)F)C2)n1 [UNC10302679A]
1. Cell count (% control) ([1]; BV2 cells, 10 uM compound): 107.8 % control | 2. Nuclear Area (% Control) ([1]; BV2 cells, 10 uM compound): 106.3 % Control | 3. Nuclear DNA Intensity (% control) ([1]; BV2 cells, 10 uM compound): 102.1 % control | 1. Cell count (% control) ([2]; HMC3 cells, 10 uM compound): 141.0 % control | 2. Nuclear Area (% Control) ([2]; HMC3 cells, 10 uM compound): 100.7 % Control | 3. Nuclear DNA Intensity (% control) ([2]; HMC3 cells, 10 uM compound): 92.7 % control | 4. Phagocytosis (% control) [3, 5]: 135.7 % control | 4. Phagocytosis (% control) [4, 6]: 69.3 % control

O=c1oc2ccccc2cc1-c1cn2cc(Cc3ccc(F)cc3)sc2n1 [UNC10302680A]
1. Cell count (% control) ([1]; BV2 cells, 10 uM compound): 59.2 % control | 2. Nuclear Area (% Control) ([1]; BV2 cells, 10 uM compound): 99.6 % Control | 3. Nuclear DNA Intensity (% control) ([1]; BV2 cells, 10 uM compound): 132.0 % control | 1. Cell count (% control) ([2]; HMC3 cells, 10 uM compound): 107.8 % control | 2. Nuclear Area (% Control) ([2]; HMC3 cells, 10 uM compound): 96.3 % Control | 3. Nuclear DNA Intensity (% control) ([2]; HMC3 cells, 10 uM compound): 103.3 % control | 4. Phagocytosis (% control) [3, 5]: 114.2 % control | 4. Phagocytosis (% control) [4, 6]: 72.6 % control

CCC(=O)N1CCC(NC(=O)Nc2ccc(OC(F)(F)F)cc2)CC1 [UNC10302681A]
1. Cell count (% control) ([1]; BV2 cells, 10 uM compound): 105.6 % control | 2. Nuclear Area (% Control) ([1]; BV2 cells, 10 uM compound): 99.0 % Control | 3. Nuclear DNA Intensity (% control) ([1]; BV2 cells, 10 uM compound): 108.5 % control | 1. Cell count (% control) ([2]; HMC3 cells, 10 uM compound): 147.2 % control | 2. Nuclear Area (% Control) ([2]; HMC3 cells, 10 uM compound): 103.6 % Control | 3. Nuclear DNA Intensity (% control) ([2]; HMC3 cells, 10 uM compound): 94.9 % control | 4. Phagocytosis (% control) [3, 5]: 102.7 % control | 4. Phagocytosis (% control) [4, 6]: 96.8 % control

Cl.NC(=O)c1cnc(N[C@@H]2CCCC[C@@H]2N)nc1Nc1cccc(-n2nccn2)c1 [UNC10302682A]
1. Cell count (% control) ([1]; BV2 cells, 10 uM compound): 28.1 % control | 2. Nuclear Area (% Control) ([1]; BV2 cells, 10 uM compound): 80.4 % Control | 3. Nuclear DNA Intensity (% control) ([1]; BV2 cells, 10 uM compound): 42.1 % control | 1. Cell count (% control) ([2]; HMC3 cells, 10 uM compound): 54.1 % control | 2. Nuclear Area (% Control) ([2]; HMC3 cells, 10 uM compound): 63.7 % Control | 3. Nuclear DNA Intensity (% control) ([2]; HMC3 cells, 10 uM compound): 181.4 % control | 4. Phagocytosis (% control) [3, 5]: 0.00121 % control | 4. Phagocytosis (% control) [4, 6]: 0.13 % control

CC(=O)N1CCC(NC(=O)NC23CC4CC(CC(C4)C2)C3)CC1 [UNC10302683A]
1. Cell count (% control) ([1]; BV2 cells, 10 uM compound): 126.3 % control | 2. Nuclear Area (% Control) ([1]; BV2 cells, 10 uM compound): 103.6 % Control | 3. Nuclear DNA Intensity (% control) ([1]; BV2 cells, 10 uM compound): 107.4 % control | 1. Cell count (% control) ([2]; HMC3 cells, 10 uM compound): 168.7 % control | 2. Nuclear Area (% Control) ([2]; HMC3 cells, 10 uM compound): 103.9 % Control | 3. Nuclear DNA Intensity (% control) ([2]; HMC3 cells, 10 uM compound): 92.0 % control | 4. Phagocytosis (% control) [3, 5]: 155.4 % control | 4. Phagocytosis (% control) [4, 6]: 72.2 % control

C=CC[N+]1(C2CC3C4CCC5CC(O)C(N6CCOCC6)CC5(C)C4CCC3(C)C2OC(C)=O)CCCC1.[Br-] (stereo not shown) [UNC10302696A]
1. Cell count (% control) ([1]; BV2, compound 10 uM): 144.5 % control | 2. Nuclear Area (% Control) ([1]; BV2, compound 10 uM): 102.9 % Control | 3. Nuclear DNA Intensity (% control) ([1]; BV2, compound 10 uM): 102.4 % control | 1. Cell count (% control) ([2]; HMC3, compound 10 uM): 145.5 % control | 2. Nuclear Area (% Control) ([2]; HMC3, compound 10 uM): 103.7 % Control | 3. Nuclear DNA Intensity (% control) ([2]; HMC3, compound 10 uM): 86.9 % control | 4. Phagocytosis (% control) [3, 7]: 148.6 % control | 4. Phagocytosis (% control) [4, 8]: 62.6 % control

CN(C)CC#Cc1ccc(OCCCc2sc(N3CCc4cccc(C(=O)Nc5nc6ccccc6s5)c4C3)nc2C(=O)O)c(F)c1 [UNC10302697A]
1. Cell count (% control) ([1]; BV2, compound 10 uM): 84.3 % control | 2. Nuclear Area (% Control) ([1]; BV2, compound 10 uM): 106.7 % Control | 3. Nuclear DNA Intensity (% control) ([1]; BV2, compound 10 uM): 111.2 % control | 1. Cell count (% control) ([2]; HMC3, compound 10 uM): 92.7 % control | 2. Nuclear Area (% Control) ([2]; HMC3, compound 10 uM): 89.5 % Control | 3. Nuclear DNA Intensity (% control) ([2]; HMC3, compound 10 uM): 121.7 % control | 4. Phagocytosis (% control) [3, 7]: 206.2 % control | 4. Phagocytosis (% control) [4, 8]: 54.1 % control

Nc1ncnc2c1nc(Br)n2[C@@H]1O[C@@H]2COP(=O)([O-])O[C@H]2[C@H]1O.[Na+] [UNC10302698A]
1. Cell count (% control) ([1]; BV2, compound 10 uM): 97.0 % control | 2. Nuclear Area (% Control) ([1]; BV2, compound 10 uM): 105.8 % Control | 3. Nuclear DNA Intensity (% control) ([1]; BV2, compound 10 uM): 98.8 % control | 1. Cell count (% control) ([2]; HMC3, compound 10 uM): 137.9 % control | 2. Nuclear Area (% Control) ([2]; HMC3, compound 10 uM): 97.3 % Control | 3. Nuclear DNA Intensity (% control) ([2]; HMC3, compound 10 uM): 96.1 % control | 4. Phagocytosis (% control) [3, 7]: 164.5 % control | 4. Phagocytosis (% control) [4, 8]: 80.6 % control
